From patent US4041064A, “16-Methyl prost-5-en-13-ynoic acid derivatives” (Carlo-Erba S.p.A., priority 1974, dated 1977)
Read-outs that look alike come from different tables or passages of the source.

Assays:
gastric secretion = assay: Antisecretory activity in rats (Shay method); assay type: in vivo, rat; conditions: subcutaneously; for ED50: Rattus norvegicus, sc, read-out: ED50 (Fiducial Limits For P = 0.05); for Potency Ratio (Fiducial Limits For P=0.05): PGE2 = 1 (conventional value)
Description: (§1) Moreover, the compounds of the present invention are endowed with an excellent anti-ulcer activity as well as with a strong gastric anti-secretory effect, as shown by the following Tables: where the conventional value of 1 is given to the anti-ulcer and anti-secretory activity of PGE2, and where the compounds of the invention are compared also with 13,14-dehydro-PGE2, 16S-methyl-PGE2 and 16(S,R)-methyl-13,14-dehydro-PGE2.
ANTISECRETORY ACTIVITY IN RATS (*)
(*) The antisecretory activity was studied according to H. Shay et al.,

[1] = test system: stress-induced gastric ulcers; assay: Inhibition of stress-induced gastric ulcers in rats (Takagi-Okabe method); assay type: in vivo, rat; conditions: anti-ulcer; for ED50: Rattus norvegicus, read-out: ED50 (Fiducial Limits For P=0.05); for Potency Ratio (Fiducial Limits For P=0.05): PGE2 = 1 (conventional value)
Description: as §1
INHIBITION OF STRESS-INDUCED GASTRIC ULCERS IN RATS (*)
(*) The ulcers are induced according to the method of Takagi-Okabe (K.
Takagi et al., Jap. J. Pharmacol., 18, 9 (1968)

[2] = test system: bronchospasm in guinea-pigs; assay: Anti-bronchospastic (anti-asthmatic) activity in guinea-pigs (histamine- and anaphylactic shock-induced bronchospasm); design: species or system guinea pig; conditions: in vivo and in vitro in guinea-pigs; for anti-bronchospastic activity: compared with natural PGE2; for anti-bronchospastic activity relative to natural PGE2: histamine- and anaphylactic shock-induced
Description: Four hours later, the same animals were treated with a spray of the test compounds at different solutions in saline, and with a spray of standard PGE2 solution. They were then given another histamine spray (0.2%) and again, the times taken for bronchospasm to appear were noted.

ileum of guinea-pigs = assay: Guinea pig ileum test in vitro
Description: The guinea pig ileum test consisted of a 10 ml thermostatic bath held at 35° C., containing the ileum of a male guinea pig, under 0.5 g traction, carboxygenated in a Tyrode solution; this was left for 30 minutes to stabilize before the compounds were tested. The response was recorded using a isotonic frontal lever, long enough to amplify the response 4.5 times.

uterus of rats = assay: Rat uterus test in vitro (oestrogenized rat uteri)
Description: The rat uterus test consisted of a 10 ml thermostatic bath held at 29° C., in which oestrogenized rat uteri under 0.5 g traction were carboxygenated in a Dejalon saline solution. The preparation was left to stabilize for 30 minutes before the compounds and the standard were tested. Response was measured using a isotonic frontal lever, long enough to amplify the response 4.5 times.

stomach of rats = assay: Activity in vitro in the stomach of rats; conditions: rat stomach

Row | SMILES | ED50 (gastric secretion) | ED50 ([1]; po, os) | ED50 ([1]; sc, subcutaneously) | Potency Ratio (Fiducial Limits For P=0.05) (gastric secretion) | Potency Ratio (Fiducial Limits For P=0.05) ([1]; os) | Potency Ratio (Fiducial Limits For P=0.05) ([1]; subcutaneously) | anti-bronchospastic activity [2] | anti-bronchospastic activity relative to natural PGE2 [2] | activity in vitro in the ileum of guinea-pigs (ileum of guinea-pigs) | spasmogenic activity (uterus of rats) | activity in vitro in the stomach of rats (stomach of rats)
1 | CCCCC[C@H](O)/C=C/[C@H]1[C@H](O)CC(=O)[C@@H]1C/C=C\CCCC(=O)O [PGE2, reference compound] | 0.155 mg/kg | 0.717 mg/kg | 0.119 mg/kg | – | – | – | – | – | – | – | –
2 | CCCC[C@H](C)[C@H](O)C#C[C@H]1[C@H](O)CC(=O)[C@@H]1C/C=C\CCCC(=O)O [16S-methyl-13,14-dehydro-PGE2, 16S-methyl-5c-9-oxo-11α,15S-dihydroxy-prost-5-en-13-ynoic acid] | 0.0042 mg/kg | 0.015 mg/kg | 0.0009 mg/kg | 35.7 (20.8-68.9) | 42.8(18.8-101.7) | 69.8(46.4-105.2) | very good anti-bronchospastic activity | four to six | – | – | –
3 | CCCC[C@H](C)[C@@H](O)C#C[C@H]1[C@H](O)CC(=O)[C@@H]1C/C=C\CCCC(=O)O [16S-methyl-13,14-dehydro-15-epi-PGE2, 16s-methyl-5c-9-oxo-11α,15R-dihydroxy-prost-5-en-13-ynoic acid] | – | 0.22 mg/kg | 0.0911 mg/kg | – | 3.8(1.75-8.4) | 2.9(1.9-4.5) | – | – | – | – | –
4 | CCCC[C@H](C)[C@H](O)/C=C/[C@H]1[C@H](O)CC(=O)[C@@H]1C/C=C\CCCC(=O)O [16S-methyl-PGE2, reference compound] | 0.0112 mg/kg | 0.0242 mg/kg | 0.0177 mg/kg | 13.5 (7.9-23.7) | 39.0(18.9-80.3) | 12.8(9.0-17.9) | – | – | – | – | –
5 | CCCCC[C@H](O)C#C[C@H]1[C@H](O)CC(=O)[C@@H]1C/C=C\CCCC(=O)O [13,14-dehydro-PGE2, reference compound] | 0.055 mg/kg | 0.063 mg/kg | 0.043 mg/kg | 2.6 (1.4-4.5) | 9.3(4.5-19.0) | 4.9(2.4-9.6) | – | – | – | – | –
6 | CCCC[C@@H](C)[C@@H](O)C#C[C@H]1[C@H](O)CC(=O)[C@@H]1C/C=C\CCCC(=O)O [16R-methyl-13,14-dehydro-15-epi-PGE2, 16r-methyl-5c-9-oxo-11α,15R-dihydroxy-prost-5-en-13-ynoic acid] | 0.0328 mg/kg | 0.141 mg/kg | 0.0087 mg/kg | 3.8 (2.7-5.5) | 7.3(3.1-16.9) | 7.4(4.8-11.1) | – | – | – | – | –
7 | CCCC[C@H](C)[C@H](O)C#C[C@@H]1[C@H](O)CC(=O)[C@H]1C/C=C\CCCC(=O)O (single isomer, unassigned) [16s-methyl-5c-9-oxo-11α,15S-trihydroxy-8,12-diiso-prost-5-en-13-ynoicacid] | – | – | – | – | – | – | – | – | practically devoid of any activity | excellent spasmogenic activity | practically devoid of any activity
8 | CCCC[C@@H](C)[C@H](O)C#C[C@H]1[C@H](O)CC(=O)[C@@H]1C/C=C\CCCC(=O)O [16R-methyl-13,14-dehydro-PGE2, 16r-methyl-5c-9-oxo-11α,15S-dihydroxy-prost-5-en-13-ynoic acid] | 0.0026 mg/kg | 0.0098 mg/kg | 0.0015 mg/kg | 48.3 (33.5-71.6) | 105.6(46.6-282.6) | 43.1(28.4-64.6) | very good anti-bronchospastic activity | four to six | – | – | –
9 | CCCCC(C)[C@H](O)C#C[C@H]1[C@H](O)CC(=O)[C@@H]1C/C=C\CCCC(=O)O (stereo partly drawn) [16(S,R)-methyl-13,14-dehydro-PGE2, reference compound] | 0.0068 mg/kg | 0.0202 mg/kg | 0.00341 mg/kg | 28.2 (18.1-41.6) | 39.8(17.1-102.1) | 30.8(20.4-44.2) | – | – | – | – | –
